From patent US11208400B2, “Substituted 6-(1H-pyrazol-1-yl)pyrimidin-4-amine derivatives and uses thereof” (Bayer Aktiengesellschaft, priority 2016, dated 2021)
Where a name gives a salt, the structure may show the parent alone.

The compounds below were run against T1, human Npt2a (Homo sapiens, UniProt Q06495) (assay: Npt2a activity cell based assay, membrane potential dye, CHO T-REx hNpt2a cells). Conditions: doxycycline-induced, depolarization by sodium phosphate influx, average or median values if tested more than once.
T1 construct: expressed in transfected cells
T1 sequence (Q06495 1-639): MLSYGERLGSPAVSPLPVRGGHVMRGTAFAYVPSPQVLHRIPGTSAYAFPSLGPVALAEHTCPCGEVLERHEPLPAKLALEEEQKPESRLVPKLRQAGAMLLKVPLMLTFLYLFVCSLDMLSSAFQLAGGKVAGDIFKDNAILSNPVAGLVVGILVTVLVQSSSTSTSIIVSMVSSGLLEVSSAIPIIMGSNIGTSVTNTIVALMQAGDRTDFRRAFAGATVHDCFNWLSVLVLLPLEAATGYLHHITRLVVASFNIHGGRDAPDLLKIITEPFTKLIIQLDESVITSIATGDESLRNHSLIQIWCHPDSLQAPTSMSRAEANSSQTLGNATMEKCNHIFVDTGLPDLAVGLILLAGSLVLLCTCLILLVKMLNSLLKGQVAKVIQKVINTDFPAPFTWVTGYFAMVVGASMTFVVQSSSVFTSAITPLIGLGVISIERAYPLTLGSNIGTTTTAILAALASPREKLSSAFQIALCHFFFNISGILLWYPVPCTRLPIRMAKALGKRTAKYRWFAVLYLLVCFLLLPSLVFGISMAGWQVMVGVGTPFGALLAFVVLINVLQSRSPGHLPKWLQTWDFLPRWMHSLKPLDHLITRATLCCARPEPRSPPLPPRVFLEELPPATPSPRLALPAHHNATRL
Outline: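 Cells were doxycycline-induced CHO T-REx hNpt2a, dye-loaded and pretreated 5 min at RT with 1 nM–50 μM compound in Na-free pH 7.4 buffer. IC50 was fit to the post/pre-trigger fluorescence ratio.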

| SMILES | IC50 [nM] |
| --- | --- |
| CCc1c(-c2ccc(F)cc2)nn(C)c1Nc1cc(-n2nc(C)c(Br)c2C)ncn1 [Example 265, 6-(4-bromo-3,5-dimethyl-1H-pyrazol-1-yl)-N-[4-ethyl-3-(4-fluorophenyl)-1-methyl-1H-pyrazol-5-yl]pyrimidin-4-amine] | 180 |
| Cc1nn(-c2cc(Nc3nn(C)c(-c4ccc(F)cc4)c3C3CC3)ncn2)c2ccccc12 [Example 44, N-[4-cyclopropyl-5-(4-fluorophenyl)-1-methyl-1H-pyrazol-3-yl]-6-(3-methyl-1H-indazol-1-yl)pyrimidin-4-amine] | 5.35 |
| Cc1nn(-c2cc(Nc3c(C)c(-c4ccncc4)nn3CC3CC3)ncn2)c(C)c1C(C)(C)O [Example 380, 2-[1-(6-{[1-(cyclopropylmethyl)-4-methyl-3-(pyridin-4-yl)-1H-pyrazol-5-yl]amino}pyrimidin-4-yl)-3,5-dimethyl-1H-pyrazol-4-yl]propan-2-ol] | 170 |
| Cc1c(-c2ccc(C#N)cc2)nn(CC2CC2)c1Nc1cc(-n2nc(C(C)C)cc2C)ncn1 [Example 286, 4-[1-(cyclopropylmethyl)-4-methyl-5-({6-[5-methyl-3-(propan-2-yl)-1H-pyrazol-1-yl]pyrimidin-4-yl}amino)-1H-pyrazol-3-yl]benzonitrile] | 93 |
| COCCn1nc(-c2ccc(C(F)F)cc2)c(C)c1Nc1cc(-n2nc(C)c(C(=O)N(C)C)c2C)ncn1 [Example 558, 1-[6-({3-[4-(difluoromethyl)phenyl]-1-(2-methoxyethyl)-4-methyl-1H-pyrazol-5-yl}amino)pyrimidin-4-yl]-N,N,3,5-tetramethyl-1H-pyrazole-4-carboxamide] | 80 |
| Cc1nn(-c2cc(Nc3c(Cl)c(-c4ccc(F)cc4)nn3C)ncn2)c(C)c1C(C)(C)O [Example 277, 2-[1-(6-{[4-chloro-3-(4-fluorophenyl)-1-methyl-1H-pyrazol-5-yl]amino}pyrimidin-4-yl)-3,5-dimethyl-1H-pyrazol-4-yl]propan-2-ol] | 150 |
| CSc1c(C)nn(-c2cc(Nc3c(C)c(-c4ccc(F)cc4)nn3CC3CC3)ncn2)c1C [Example 399, N-[1-(cyclopropylmethyl)-3-(4-fluorophenyl)-4-methyl-1H-pyrazol-5-yl]-6-[3,5-dimethyl-4-(methylsulfanyl)-1H-pyrazol-1-yl]pyrimidin-4-amine] | 6 |
| Cc1nn(-c2cc(Nc3n[nH]c(-c4ccccc4)c3C)ncn2)c(C)c1Cl [Example 11, 6-(4-chloro-3,5-dimethyl-1H-pyrazol-1-yl)-N-(4-methyl-5-phenyl-1H-pyrazol-3-yl)pyrimidin-4-amine] | 50.3 |
| Cc1nn(-c2cc(Nc3c(Cl)c(-c4ccc(F)cc4)nn3CC3CC3)ncn2)c(C(F)F)c1Cl [Example 186, N-[4-chloro-1-(cyclopropylmethyl)-3-(4-fluorophenyl)-1H-pyrazol-5-yl]-6-[4-chloro-5-(difluoromethyl)-3-methyl-1H-pyrazol-1-yl]pyrimidin-4-amine] | 60 |
| COc1ccc(-c2nn(CC3CC3)c(Nc3cc(-n4nc(C)c(Cl)c4C)ncn3)c2C)cn1 [Example 498, 6-(4-chloro-3,5-dimethyl-1H-pyrazol-1-yl)-N-[1-(cyclopropylmethyl)-3-(6-methoxypyridin-3-yl)-4-methyl-1H-pyrazol-5-yl]pyrimidin-4-amine] | 1310 |
| CCc1c(Nc2cc(-n3nc(C)cc3C)ncn2)nn(CCOCc2ccccc2)c1-c1ccc(F)cc1 [Example 31, N-{1-[2-(benzyloxy)ethyl]-4-ethyl-5-(4-fluorophenyl)-1H-pyrazol-3-yl}-6-(3,5-dimethyl-1H-pyrazol-1-yl)pyrimidin-4-amine] | 670 |
| Cc1ccc(-c2nn(CC3CC3)c(Nc3cc(-n4nc(C)cc4C)ncn3)c2C)cn1 [Example 529, N-[1-(cyclopropylmethyl)-4-methyl-3-(6-methylpyridin-3-yl)-1H-pyrazol-5-yl]-6-(3,5-dimethyl-1H-pyrazol-1-yl)pyrimidin-4-amine] | 2700 |
| CCc1c(Nc2cc(-n3nc4c(c3O)CCCC4)ncn2)nn(C)c1-c1ccc(F)cc1 [Example 29, 2-(6-{[4-ethyl-5-(4-fluorophenyl)-1-methyl-1H-pyrazol-3-yl]amino}pyrimidin-4-yl)-4,5,6,7-tetrahydro-2H-indazol-3-ol] | 1420 |
| CCc1c(Nc2cc(-n3nc(C)cc3C)ncn2)nn(S(C)(=O)=O)c1-c1ccc(F)cc1 [Example 114, 6-(3,5-dimethyl-1H-pyrazol-1-yl)-N-[4-ethyl-5-(4-fluorophenyl)-1-(methylsulfonyl)-1H-pyrazol-3-yl]pyrimidin-4-amine] | 290 |
| Cc1nn(-c2cc(Nc3c(C)c(-c4ccc(C(F)F)cc4)nn3CC3CC3)ncn2)c(C)c1C(C)(C)O [Example 396, 2-{1-[6-({1-(cyclopropylmethyl)-3-[4-(difluoromethyl)phenyl]-4-methyl-11H-pyrazol-5-yl}amino)pyrimidin-4-yl]-3,5-dimethyl-1H-pyrazol-4-yl}propan-2-ol] | 16 |
| Cc1c(Nc2cc(-n3nc(C)c4ccncc43)ncn2)nn(C)c1-c1ccc(C#N)cc1 [Example 228, 4-(1,4-dimethyl-3-{[6-(3-methyl-1H-pyrazolo[3,4-c]pyridin-1-yl)pyrimidin-4-yl]amino}-1H-pyrazol-5-yl)benzonitrile] | 210 |
| CCOC(=O)c1c(C)nn(-c2cc(Nc3c(C)c(-c4ccc(C#N)cc4)nn3CC3CC3)ncn2)c1C [Example 149, ethyl 1-(6-{[3-(4-cyanophenyl)-1-(cyclopropylmethyl)-4-methyl-1H-pyrazol-5-yl]amino}pyrimidin-4-yl)-3,5-dimethyl-1H-pyrazole-4-carboxylate] | 7 |
| Cc1nn(-c2cc(Nc3c(C)c(-c4ccc(F)cc4)nn3CC3CC3)ncn2)c(C)c1CC1(O)CC1 [Example 287, 1-{[1-(6-{[1-(cyclopropylmethyl)-3-(4-fluorophenyl)-4-methyl-1H-pyrazol-5-yl]amino}pyrimidin-4-yl)-3,5-dimethyl-1H-pyrazol-4-yl]methyl}cyclopropanol] | 5 |
| Cc1nn(-c2cc(Nc3c(C)c(-c4ccc(F)cc4)nn3CC3CC3)ncn2)c(C)c1C(C)(C)O [Example 159, 2-[1-(6-{[1-(cyclopropylmethyl)-3-(4-fluorophenyl)-4-methyl-1H-pyrazol-5-yl]amino}pyrimidin-4-yl)-3,5-dimethyl-1H-pyrazol-4-yl]propan-2-ol] | 8 |
| Cc1nn(-c2cc(Nc3c(C)c(-c4ccc(F)cc4)nn3CC3CC3)ncn2)c(C)c1N [Example 484, 6-(4-amino-3,5-dimethyl-1H-pyrazol-1-yl)-N-[1-(cyclopropylmethyl)-3-(4-fluorophenyl)-4-methyl-1H-pyrazol-5-yl]pyrimidin-4-amine trifluoroacetate] | 36 |
| CCc1c(-c2ccc(C#N)cc2)nn(C)c1Nc1cc(-n2nc(C)cc2C)ncn1 [Example 209, 4-(5-{[6-(3,5-dimethyl-1H-pyrazol-1-yl)pyrimidin-4-yl]amino}-4-ethyl-1-methyl-1H-pyrazol-3-yl)benzonitrile] | 18 |
| CCc1c(Nc2cc(-n3nc(C)c4c3CCCC4(C)O)ncn2)nn(C)c1-c1ccc(F)cc1 (racemic) [Example 134, (±)-1-(6-{[4-ethyl-5-(4-fluorophenyl)-1-methyl-1H-pyrazol-3-yl]amino}pyrimidin-4-yl)-3,4-dimethyl-4,5,6,7-tetrahydro-1H-indazol-4-ol (Racemate)] | 180 |
| Cc1c(-c2ccc(F)cc2)nn(CC2CC2)c1Nc1cc(-n2nc3c(c2C)C(O)(C(F)(F)F)CC3)ncn1 (racemic) [Example 403, (±)-2-(6-{[1-(cyclopropylmethyl)-3-(4-fluorophenyl)-4-methyl-1H-pyrazol-5-yl]amino}pyrimidin-4-yl)-3-methyl-4-(trifluoromethyl)-2,4,5,6-tetrahydrocyclopenta[c]pyrazol-4-ol] | 12 |
| Cc1nn(-c2cc(Nc3c(C)c(-c4ccc(OC(F)F)cc4)nn3CC3CC3)ncn2)c(C)c1C(F)(F)F [Example 478, N-{1-(cyclopropylmethyl)-3-[4-(difluoromethoxy)phenyl]-4-methyl-1H-pyrazol-5-yl}-6-[3,5-dimethyl-4-(trifluoromethyl)-1H-pyrazol-1-yl]pyrimidin-4-amine] | 45 |
| Cc1cc(C(F)F)n(-c2cc(Nc3c(C)c(-c4ccc(F)cc4)nn3C)ncn2)n1 [Example 70, 6-[5-(difluoromethyl)-3-methyl-1H-pyrazol-1-yl]-N-[3-(4-fluorophenyl)-1,4-dimethyl-1H-pyrazol-5-yl]pyrimidin-4-amine] | 36 |
| Cc1cc(C(F)F)n(-c2cc(Nc3nn(C)c(-c4ccc(F)cc4)c3Cl)ncn2)n1 [Example 346, N-[4-chloro-5-(4-fluorophenyl)-1-methyl-1H-pyrazol-3-yl]-6-[5-(difluoromethyl)-3-methyl-1H-pyrazol-1-yl]pyrimidin-4-amine] | 4 |
| CCc1c(-c2ccc(C#N)cc2)nn(C)c1Nc1cc(-n2nc(C)cc2C(F)F)ncn1 [Example 216, 4-[5-({6-[5-(difluoromethyl)-3-methyl-1H-pyrazol-1-yl]pyrimidin-4-yl}amino)-4-ethyl-1-methyl-1H-pyrazol-3-yl]benzonitrile] | 12 |
